# Target: T1, hDGAT1 (Homo sapiens, UniProt O75907)
# T1 construct: made in house; host or cells: Sf9 insect cells (baculovirus); microsomal fraction
# T1 sequence (O75907 1-488): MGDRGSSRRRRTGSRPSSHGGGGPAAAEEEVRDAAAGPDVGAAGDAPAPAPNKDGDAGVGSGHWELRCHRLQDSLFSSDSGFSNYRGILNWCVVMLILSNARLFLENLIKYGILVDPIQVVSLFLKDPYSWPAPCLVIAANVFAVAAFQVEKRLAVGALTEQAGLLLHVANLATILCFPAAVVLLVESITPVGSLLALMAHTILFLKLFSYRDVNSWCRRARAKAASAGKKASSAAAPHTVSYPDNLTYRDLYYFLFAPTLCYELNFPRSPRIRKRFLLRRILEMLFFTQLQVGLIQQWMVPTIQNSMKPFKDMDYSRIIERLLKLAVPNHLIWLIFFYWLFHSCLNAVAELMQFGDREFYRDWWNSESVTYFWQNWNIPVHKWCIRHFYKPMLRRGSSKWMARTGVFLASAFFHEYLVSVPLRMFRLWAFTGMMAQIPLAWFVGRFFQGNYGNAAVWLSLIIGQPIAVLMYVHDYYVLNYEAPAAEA
# Assay: In-vitro DGAT1 assay with hDGAT1 microsomes from Sf9 cells (14C oleoyl CoA, scintillation counting)
# Type: biochemical
# Details: at 1 μM
# Method: Sf9 cells were grown in T25 flasks containing Graces's Insect media with 10% FBS with antibiotic (100 units/mL penicillin, 100 μg/mL streptomycin sulphate, 0.25 μg/mL Amptotericin B as Fungizone) grown in a 27° C. incubator.
# hDGAT10RF expression clone (RZPDo839C09146 in pDEST vector) was obtained from RZPD, German Science Center for Genomes research, Germany. hDGAT1 bacmid DNA was obtained by transformation of the hDGAT1 expression clone into DH10Bac E. coli competent cells. Approximately 1 μg of hDGAT1 bacmid DNA was infected into Sf9 cells with Cellfectin (Invitrogen) reagent. Following infection, Sf9 cells were incubated at 27° C. for 30 min. Five hours after infection, the media was replaced with growth media containing antibiotics (100 units/mL penicillin, 100 μg/mL streptomycin sulphate, 0.25 μg/mL Amptotericin B as Fungizone) and incubated at 27° C. for 72 h. The supernatant containing the virus was centrifuged at 1500×g for 5 min, passed through 0.22 μm filter, and subsequently stored at 4° C. The virus was further amplified three more times by re-infection of Sf9 cells and the viral titer was determined by plaque assay.
# Sf9 cells were seeded in spinner flasks on day 0 at a cell density of 1×10^6 and infected on day 1 with hDGAT1 baculovirus at a multiplicity of infection (MOI) of 5 and a cell density of 2×10^6. On day 3 (or 66-72 h), cells were harvested and centrifuged at 2500×g for 10 min. Pellet was resuspended in lysis buffer (100 mM sucrose, 50 mM KCl, 40 mM KH2PO4, 30 mM EDTA, pH 7.2) and passed through 21-gauge needle approximately 10 times. The mixture was centrifuged at 12,000 rpm in a Sigma 12158-H rotor at 4° C. for 30 min. The supernatant was subjected to centrifugation at 35,000 rpm in a Beckman Ti-45 rotor at 4° C. for 1 h. The resultant pellet containing the microsomes wasere resuspended overnight in 1 mL of lysis buffer and total protein concentration was estimated using Bradford Reagent. Microsomes were aliquoted and stored at −80° C.
# Frozen aliquots of hDGAT1 containing microsomes were thawed (5-10 mg/mL total protein) on ice and diluted to a working stock of 1 mg/mL with DGAT Assay Buffer (DAB). The DGAT reaction assay was performed by following the procedure described in U.S. Pat. No. 6,607,893 with some modifications that are described below.
# 1 mL stock solution of DGAT1 substrate mixture contains 5.6 μL of ^14C oleoyl CoA (16.8 nCi) and […] of 1,2-dioleoyl-sn-glycerol (1228.5 μM) 1,2-dioleoyl-sn-glycerol stock (19.5 mM) was prepared by dissolving 25 mg of 1,2-dioleoyl-sn-glycerol (Sigma, US) in 2060 μL of acetone.
# The assay was performed in duplicates in a reaction volume of 100 μL.
# The reaction was started by the addition of 2.5 μL of 1 mg/mL of microsomes (iv) to the mixture of (i), (ii) and (iii), and incubated at 37° C. for 10 min. The reaction was stopped by the addition of 300 μL of Alkaline Ethanol Stop Solution Mix [AESSM; 12.5% of 100% non-denatured ethanol, 10% deionized water, 2.5% 1N NaOH, 75% stop solution (78.4% isopropanol, 19.6% n-heptane, 2% deionized water)] followed by addition of 600 μL of n-heptane. The mixture was vortexed and the triglycerides formed were extracted into the organic heptane phase. 250 μL of the heptane phase was added into 4 mL scintillation cocktail (66.72% toluene, 33.3% TritonX-100, 0.5% PPO, 0.02% POPOP) and counted on a liquid scintillation counter for 1 min. Data was collected and plotted as a function of concentration in nM versus percentage inhibition of hDGAT1 by the compounds of present invention.
row,SMILES,Percentage inhibition of hDGAT1
1,"CC(C)(CC(=O)O)Cc1ncc(-c2ccc(NC(=O)c3ccc(-c4ccccc4)cc3)cc2)s1 [Example 77, 4-(5-(4-Biphenyl-4-ylcarboxamidophenyl)thiazol-2-yl)-3,3-dimethylbutanoic acid]",++ (>50 % Inhibition)
2,"COC(=O)C(C)(C)CCc1ncc(-c2ccc(NC(=O)Nc3ccc(F)cc3)cc2)s1 [Example 96, Methyl 4-(5-(4-(3-(4-fluorophenyl)ureido)phenyl)thiazol-2-yl-2,2-dimethyl butanoate]",++ (>50 % Inhibition)
3,"CC(C)(CCc1ncc(-c2ccc(NC(=O)c3ccc(-c4ccccc4)cc3)cc2)s1)C(=O)O [Example 108, 4-(5-(4-Biphenyl-4-ylcarboxamidophenyl)thiazol-2-yl)-2,2-dimethylbutanoic acid]",++ (>50 % Inhibition)
4,"CC(C)(Cc1ncc(-c2ccc(NC(=O)c3ccc(-c4ccccc4)cc3)cc2)o1)C(=O)O [Example 128, 3-(5-(4-Biphenyl-4-ylcarboxamidophenyl)oxazol-2-yl)-2,2-dimethylpropanoic acid]",+ (20-50% Inhibition)

# Same assay, conditions: read-out: Percentage inhibition of hDGAT1
row,SMILES,inhibition at 1 µM
1,"CC(C)(CC(=O)O)Cc1ncc(-c2ccc(NC(=O)Nc3cccc(C(F)(F)F)c3)cc2)s1 [Example 69, 3,3-Dimethyl-4-(5-(4-(3-(3-(trifluoromethyl)phenyl)ureido)phenyl)thiazol-2-yl)butanoic acid]",> 50%
2,"CC(C)(CC(=O)O)Cc1ncc(-c2ccc(NC(=O)Nc3ccccc3Cl)cc2)s1 [Example 71, 4-(5-(4-(3-(2-Chlorophenyl)ureido)phenyl)thiazol-2-yl)-3,3-dimethyl butanoic acid]",> 50%
3,"CC(C)(CC(=O)O)Cc1ncc(-c2ccc(NC(=O)Nc3ccc(Cl)cc3Oc3ccccc3)cc2)s1 [Example 73, 4-(5-(4-(3-(4-Chloro-2-phenoxyphenyl)ureido)phenyl)thiazol-2-yl)-3,3-dimethyl butanoic acid]",> 50%
4,"CC(C)(CC(=O)O)Cc1ncc(-c2ccc(NC(=O)c3ccc(C(C)(C)C)cc3)cc2)s1 [Example 75, 4-(5-(4-(4-tert-Butylbenzamido)phenyl)thiazol-2-yl)-3,3-dimethylbutanoic acid]",> 50%
5,"CCCCCc1ccc(C(=O)Nc2ccc(-c3cnc(CC(C)(C)CC(=O)O)s3)cc2)cc1 [Example 79, 3,3-Dimethyl-4-(5-(4-(4-pentylbenzamido)phenyl)thiazol-2-yl)butanoic acid]",> 50%
6,"COc1ccc(S(=O)(=O)Nc2ccc(-c3cnc(CC(C)(C)CC(=O)O)s3)cc2)c(OC)c1 [Example 81, 4-(5-(4-(2,4-Dimethoxyphenylsulfonamido)phenyl)thiazol-2-yl)-3,3-dimethylbutanoic acid]",20 to 50%
7,"CC(C)(CCc1ncc(-c2ccc(NC(=O)Nc3cccc(C(F)(F)F)c3)cc2)s1)C(=O)O [Example 88, 2,2-Dimethyl-4-(5-(4-(3-(3-(trifluoromethyl)phenyl)ureido)phenyl)thiazol-2-yl)butanoic acid]",> 50%
8,"CC(C)(CCc1ncc(-c2ccc(NC(=O)Nc3ccccc3Cl)cc2)s1)C(=O)O [Example 90, 4-(5-(4-(3-(2-Chlorophenyl)ureido)phenyl)thiazol-2-yl)-2,2-dimethylbutanoic acid]",> 50%
9,"CC(C)(CCc1ncc(-c2ccc(NC(=O)Nc3ccc(Cl)cc3Oc3ccccc3)cc2)s1)C(=O)O [Example 92, 4-(5-(4-(3-(4-Chloro-2-phenoxyphenyl)ureido)phenyl)thiazol-2-yl)-2,2-dimethylbutanoic acid]",> 50%
10,"CC(C)(CCc1ncc(-c2ccc(NC(=O)NC3CCCCC3)cc2)s1)C(=O)O [Example 94, 4-(5-(4-(3-Cyclohexylureido)phenyl)thiazol-2-yl)-2,2-dimethyl butanoic acid]",> 50%
11,"COc1ccc(NC(=O)Nc2ccc(-c3cnc(CCC(C)(C)C(=O)O)s3)cc2)cc1 [Example 98, 4-(5-(4-(3-(4-Methoxyphenyl)ureido)phenyl)thiazol-2-yl)-2,2-dimethyl butanoic acid]",> 50%
12,"CC(C)(CCc1ncc(-c2ccc(NC(=O)c3ccc(C(C)(C)C)cc3)cc2)s1)C(=O)O [Example 106, 4-(5-(4-(4-tert-Butylbenzamido)phenyl)thiazol-2-yl)-2,2-dimethylbutanoic acid]",> 50%
13,"CC(C)(Cc1ncc(-c2ccc(NC(=O)Nc3ccc(Cl)cc3Oc3ccccc3)cc2)o1)C(=O)O [Example 124, 3-(5-(4-(3-(4-Chloro-2-phenoxyphenyl)ureido)phenyl)oxazol-2-yl)-2,2-dimethyl propanoic acid]",> 50%
14,"O=C(Nc1ccc(-c2cnc(C3CCC(C(=O)O)CC3)s2)cc1)Nc1cccc(C(F)(F)F)c1 (stereo not shown) [Example 134, 4-(5-(4-(3-(3-(Trifluoromethyl)phenyl)ureido)phenyl)thiazol-2-yl)cyclohexane carboxylic acid]",> 50%
15,"Cc1ccc(NC(=O)Nc2ccc(-c3cnc(C4CCC(C(=O)O)CC4)s3)cc2)cc1 (stereo not shown) [Example 136, 4-(5-(4-(3-p-Tolylureido)phenyl)thiazol-2-yl)cyclohexanecarboxylic acid]",> 50%
16,"O=C(Nc1ccc(-c2cnc(C3CCC(C(=O)O)CC3)s2)cc1)Nc1ccc(F)cc1F (stereo not shown) [Example 138, 4-(5-(4-(3-(2,4-Difluorophenyl)ureido)phenyl)thiazol-2-yl)cyclohexane carboxylic acid]",> 50%
17,"O=C(Nc1ccc(-c2cnc(C3CCC(C(=O)O)CC3)s2)cc1)Nc1ccccc1F (stereo not shown) [Example 140, 4-(5-(4-(3-(2-Fluorophenyl)ureido)phenyl)thiazol-2-yl)cyclohexanecarboxylic acid]",> 50%
18,"O=C(Nc1ccc(-c2cnc(C3CCC(C(=O)O)CC3)s2)cc1)NC1CCCCC1 (stereo not shown) [Example 142, 4-(5-(4-(3-Cyclohexylureido)phenyl)thiazol-2-yl)cyclohexanecarboxylic acid]",> 50%
19,"O=C(Nc1ccc(-c2cnc(C3CCC(C(=O)O)CC3)s2)cc1)Nc1cccc(Cl)c1 (stereo not shown) [Example 144, 4-(5-(4-(3-(3-Chlorophenyl)ureido)phenyl)thiazol-2-yl)cyclohexane carboxylic acid]",> 50%
20,"O=C(Nc1ccc(Cl)cc1)Nc1ccc(-c2cnc(C3CCC(C(=O)O)CC3)s2)cc1 (stereo not shown) [Example 146, 4-(5-(4-(3-(4-Chlorophenyl)ureido)phenyl)thiazol-2-yl)cyclohexane carboxylic acid]",> 50%
21,"O=C(Nc1ccc(-c2cnc(C3CCC(C(=O)O)CC3)s2)cc1)Nc1ccc(C(F)(F)F)cc1Cl (stereo not shown) [Example 148, 4-(5-(4-(3-(2-Chloro-4-(trifluoromethyl)phenyl)ureido)phenyl)thiazol-2-yl)cyclohexanecarboxylic acid]",> 50%
